Assay results as given in US20250368628A1, “METHODS AND COMPOUNDS FOR MODULATING INHERITED GENETIC DISEASES” (Design Therapeutics, Inc., priority 2022, published 2025).

Experiments:
F35T cells = test: Foci reduction in FECD (CAG10-Cy3 FISH, foci per nucleus); format: cell-based; details: F35T cells, 48 h treatment, foci per nucleus; read-out: FECD EC50, 48 h
Summary of the method: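 F35T cells, 5000 per well, were treated for 48 h at 37 °C, 5% CO2 in an 8-point dose response. Cells were then fixed in 4% PFA, permeabilized in 70% ethanol and hybridized overnight at 37 °C with a CAG10-Cy3 probe in 30% formamide/2×SSC. After DAPI staining, imaging gave foci per nucleus.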

[1] = tested on: Myotonic Dystrophy 1 affected patient fibroblasts (Coriel GM04602; 1600 CTG repeats); test: DM1 foci reduction assay (EC50 assay; CAG10-Cy3 FISH, foci per nucleus); format: cell-based; details: Homo sapiens, Fibroblast; DM1 patient fibroblasts, 48 h treatment, foci per nucleus; read-out: DM1 EC50, 48 h
Summary of the method: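 GM04602 DM1 patient fibroblasts (1600 CTG repeats) seeded 24 h, then treated 48 h at 37 °C with an 8-point 1:3 dose series from 3 μM. Cells PFA-fixed, ethanol-permeabilized and hybridized overnight with 5 nM CAG10-Cy3 probe, DAPI counterstained. Imaged at 20×, 4 fields per well, as average foci per nucleus.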

Structure (SMILES) | EC50 (F35T cells) [nM] | EC50 [1] [nM]
CCOC(=O)c1nc(NC(=O)c2cc(NC(=O)CCNC(=O)c3nc(NC(=O)CCCNC(=O)c4cc(NC(=O)c5nc(NC(=O)CCNC(=O)c6cc(NC(=O)c7nccn7C)cn6C)cn5C)cn4CCCCCCN=[N+]=[N-])cn3C)cn2C)c[nH]1 [Compound B-373] | > 1000 | > 1000
CCOC(=O)c1nc(NC(=O)c2cc(NC(=O)CCNC(=O)c3nc(NC(=O)CCCNC(=O)c4cc(NC(=O)c5nc(NC(=O)CCNC(=O)c6cc(NC(=O)c7nccn7C)cn6C)cn5C)cn4CCCCCCn4cc(COCCOCCOCCOC)nn4)cn3C)cn2C)cn1C [Compound B-374] | > 1000 | > 1000
CCOC(=O)c1nc(NC(=O)c2cc(NC(=O)CCNC(=O)c3nc(NC(=O)CCCNC(=O)c4cc(NC(=O)c5nc(NC(=O)CCNC(=O)c6cc(NC(=O)c7nccn7C)cn6C)cn5C)cn4CCCCCCn4nnc5c4-c4ccccc4N(C(=O)CCC(=O)NCCOCCOCCCCCCCl)Cc4ccccc4-5)cn3C)cn2C)cn1C [Compound B-375] | > 1000 | > 1000
CCCNC(=O)c1nc(NC(=O)c2cc(NC(=O)CCNC(=O)c3nc(NC(=O)CCCNC(=O)c4cc(NC(=O)c5nc(NC(=O)CCNC(=O)c6cc(NC(=O)c7nccn7C)cn6C)cn5C)cn4CCCCCCn4cc(COCCOCCOCCOC)nn4)cn3C)cn2C)cn1C [Compound B-376] | 100 to 500 | > 1000
Cn1cc(NC(=O)c2nc(NC(=O)CCNC(=O)c3cc(NC(=O)c4nccn4C)cn3C)cn2C)cc1C(=O)NCCCC(=O)Nc1cn(C)c(C(=O)NCCC(=O)Nc2cc(C(=O)Nc3cn(C)c(C(=O)NCCC#N)n3)n(C)c2)n1 [Compound B-377] | < 100 | 100 to 500
Cn1cc(NC(=O)c2nc(NC(=O)CCNC(=O)c3cc(NC(=O)c4nccn4C)cn3C)cn2C)cc1C(=O)NCCCC(=O)Nc1cn(C)c(C(=O)NCCC(=O)Nc2cc(C(=O)Nc3cn(C)c(C(=O)NCCC(=O)N4CCC(C#CC#CC5CCN(C(=O)OC(C)(C)C)CC5)CC4)n3)n(C)c2)n1 [Compound B-378, Tert-butyl 4-[4-(1-{3-[(1-methyl-4-{1-methyl-4-[3-({1-methyl-4-[4-({1-methyl-4-[1-methyl-4-(3-{[1-methyl-4-(1-methylimidazole-2-amido)pyrrol-2-yl]formamido}propanamido)imidazole-2-amido]pyrrol-2-yl}formamido)butanamido]imidazol-2-yl}formamido)propanamido]pyrrole-2-amido}imidazol-2-yl)formamido]propanoyl}piperidin-4-yl)buta-1,3-diyn-1-yl]piperidine-1-carboxylate] | 100 to 500 | > 1000
CC(=O)N1CCC(C#CC#CC2CCN(C(=O)CCNC(=O)c3nc(NC(=O)c4cc(NC(=O)CCNC(=O)c5nc(NC(=O)CCCNC(=O)c6cc(NC(=O)c7nc(NC(=O)CCNC(=O)c8cc(NC(=O)c9nccn9C)cn8C)cn7C)cn6C)cn5C)cn4C)cn3C)CC2)CC1 [Compound B-379] | < 100 | 100 to 500
Cn1cc(NC(=O)c2nc(NC(=O)CCNC(=O)c3cc(NC(=O)c4nccn4C)cn3C)cn2C)cc1C(=O)NCCCC(=O)Nc1cn(C)c(C(=O)NCCC(=O)Nc2cc(C(=O)Nc3cn(C)c(C(=O)NCCC(=O)N4CCC(C#CC#CC5CCOCC5)CC4)n3)n(C)c2)n1 [Compound B-380] | < 100 | < 100
CC#CC#CC1CCN(C(=O)CCNC(=O)c2nc(NC(=O)c3cc(NC(=O)CCNC(=O)c4nc(NC(=O)CCCNC(=O)c5cc(NC(=O)c6nc(NC(=O)CCNC(=O)c7cc(NC(=O)c8nccn8C)cn7C)cn6C)cn5C)cn4C)cn3C)cn2C)CC1 [Compound B-381] | 100 to 500 | 100 to 500
Cn1cc(NC(=O)c2nc(NC(=O)CCNC(=O)c3cc(NC(=O)c4nccn4C)cn3C)cn2C)cc1C(=O)NCCCC(=O)Nc1cn(C)c(C(=O)NCCC(=O)Nc2cc(C(=O)Nc3cn(C)c(C(=O)NCCCN(CC#Cc4cccc(C(=O)O)c4)CCCN)n3)n(C)c2)n1 [Compound B-383] | < 100 | > 1000
